This note sets out measurements from PubChem BioAssay AID1996.

In general, solubility (kinetic) refers to solubility judged after dilution from a stock solution rather than from solid.

≈ marks a conversion by molar mass, not a printed value.

For this series the following is noted: buffer; pH 7.4; 200.0 µM.
Consider `CSc1ccc(CN2C(=O)NC3(CCCCCCC3)C2=O)cc1`, for which the solubility (kinetic) was determined as 5.6 µg/mL (≈ 16.8 µM).

`Cc1cc(NC(=O)c2ccc(Cl)cc2Cl)n(CCC#N)n1` registered a kinetic solubility above 48.5 µg/mL.

As for `Cc1cccc(OCC(=O)OC(C)CN2CCCCC2)c1.Cl` (stereo not drawn), the solubility (kinetic) was above 49.2 µg/mL.

For `CC(=O)Nc1ccccc1NC(=O)c1ccccc1-c1ccccc1`, the kinetic solubility was above 49.6 µg/mL.

For the compound `CC1(C)CC(=O)C2=C(C1)Nc1ccccc1NC2c1cccc(F)c1` (stereo not drawn), the kinetic solubility was above 50.5 µg/mL.

`CC(=O)c1ccc(Nc2nc(C)cc(C)n2)cc1` had a solubility (kinetic) of 5.6 µg/mL (≈ 23.2 µM).

Take `CSc1ccc(S(=O)(=O)Nc2ccc3c(c2)NC(=O)CC3)cc1`: the solubility (kinetic) worked out at 8 µg/mL (≈ 23 µM).

In turn, `CC(C)Cn1c(SCC(=O)O)nnc1-c1cccc(S(=O)(=O)N2CCOCC2)c1` had a kinetic solubility above 66.1 µg/mL.

Compound `COc1cccc(OC)c1C(=O)Nc1cccnc1` showed a kinetic solubility above 38.7 µg/mL.

Compound `CC1(C)CC(=O)N(c2ccc(Cl)c(Cl)c2)C(=O)C1` returned a kinetic solubility of 9.6 µg/mL (≈ 33.5 µM).

With `COc1cccc2cc(-c3ccnc(N)n3)oc12`, the kinetic solubility stood at 2.6 µg/mL (≈ 10.8 µM).

Regarding `O=C1CC(/C=C/c2ccccc2)=Nc2ccccc2N1`, the kinetic solubility was 2.1 µg/mL (≈ 8.01 µM).

As for `O=[N+]([O-])c1ccc(N2CCN(c3ccc(F)cc3)CC2)cc1`, the kinetic solubility is 0.3 µg/mL (≈ 0.996 µM).

As to `O=C(N1CCCC1)C12CC3CCC(CC(C3)C1)C2`, the solubility (kinetic) was found to be 28.4 µg/mL (≈ 115 µM).

Compound `CCNS(=O)(=O)c1ccc(CCC(=O)NCc2ccccn2)cc1` showed a solubility (kinetic) above 52.1 µg/mL.

On to `C=CCN(c1ccccc1OC)S(=O)(=O)c1cccc(C(=O)NCc2ccco2)c1`, for which the solubility (kinetic) was 1 µg/mL (≈ 2.34 µM).

Compound `O=C(c1sccc1Cl)N1CCN(Cc2ccc3c(c2)OCO3)CC1` came in with a solubility (kinetic) above 54.7 µg/mL.

Regarding `Cc1nc2ccccc2c(=O)n1-c1ccc(-c2ccccc2)cc1`, the solubility (kinetic) is below 0.3 µg/mL.

Take `O=C(NCc1csc(-c2cccs2)n1)C1CCCCC1`: the solubility (kinetic) turned out to be 3.9 µg/mL (≈ 12.7 µM).

`CCOC(=O)c1sc(=NC(=O)c2ccc(C)cc2)n(C)c1C` returned a solubility (kinetic) below 0.3 µg/mL.

Take `CCc1nc2ccccc2n1CCc1ccccc1.Cl`: the kinetic solubility amounted to 37.6 µg/mL.

Compound `COc1ccc(NC(=O)c2ccc3ncsc3c2)cc1` returned a kinetic solubility of 1.3 µg/mL (≈ 4.57 µM).

`COc1ccccc1C(=O)NC(C)c1ccc(-n2ccnc2)cc1` (stereo not drawn) gave a kinetic solubility above 48.2 µg/mL.

`COc1ccc(CNC(=O)COC(=O)c2cc3ccccc3cc2O)cc1OC` registered a kinetic solubility of 25.9 µg/mL (≈ 65.5 µM).

Compound `Cc1cc(C)nc(Nc2cccc(C(F)(F)F)c2)n1.Cl` came in with a solubility (kinetic) of 1.8 µg/mL.

`O=C1OCC2=C1C(c1ccccc1)CC(=O)N2c1ccc(F)cc1` (stereo not drawn) showed a solubility (kinetic) above 48.5 µg/mL.

Take `Cc1nnc(NC(=O)CN2CC(C)OC(C)C2)s1` (stereo not drawn): the kinetic solubility is above 40.6 µg/mL.

In the case of `O=C(NCCCN1CCOCC1)c1ccc2ccccc2c1`, the solubility (kinetic) is above 44.8 µg/mL.

`Cn1cnnc1SCC(=O)Nc1ccc(OC(F)F)cc1` registered a solubility (kinetic) above 47.1 µg/mL.

In turn, `CC(=O)Nc1ccc(C(=O)OCC(=O)N2CCCC2)cc1` yielded a kinetic solubility above 43.5 µg/mL.

`CC(=O)C1=NOC2C(=O)N(c3ccccc3)C(=O)C12` (stereo not drawn) showed a kinetic solubility above 38.7 µg/mL.

For `O=C(O)/C=C/C(=O)NCCc1ccccc1`, the solubility (kinetic) was above 32.9 µg/mL.

On to `Cc1cccc(-c2nnc(SCC(=O)NC3CC3)n2C)c1`, for which the kinetic solubility is above 45.4 µg/mL.

As for `COc1cccc(CNC(=O)COC(=O)c2ccc(Cl)s2)c1`, the solubility (kinetic) stood at 1.4 µg/mL (≈ 4.12 µM).

`O=C(CSc1ncccn1)N1CCCCCC1` showed a solubility (kinetic) above 37.7 µg/mL.

Turning to `CS(=O)(=O)N1CCN(C(=O)Cc2ccc([N+](=O)[O-])cc2)CC1`, the solubility (kinetic) worked out at 49 µg/mL (≈ 150 µM).

Turning to `CN1CCN(c2nc3c(c(=O)n(C)c(=O)n3C)n2Cc2ccccc2F)CC1`, the kinetic solubility is above 58 µg/mL.

`COc1ccccc1C1CCN(Cc2ccccc2Cl)CC1` gave a solubility (kinetic) of 3.6 µg/mL (≈ 11.4 µM).

As to `CCc1c(C)c(C#N)c2[nH]c3ccccc3n2c1=S`, the kinetic solubility was found to be 6.6 µg/mL (≈ 24.7 µM).

For `COc1ccccc1C(=O)C1CCCN(Cc2cnc(C)s2)C1` (stereo not drawn), the solubility (kinetic) is above 49.6 µg/mL.

As for `COc1cccc2[nH]c(C(=O)NC(C)c3ccccc3)cc12` (stereo not drawn), the kinetic solubility was above 44.2 µg/mL.

As to `CCOC(=O)c1sc2ncnc(Nc3cccc(C(=O)O)c3)c2c1C`, the kinetic solubility was above 53.6 µg/mL.

The compound `O=C(CN1CCCCCCC1)NC(=O)NC1CCCCC1` yielded a solubility (kinetic) of 30.2 µg/mL (≈ 102 µM).

`CCc1ccc2c(CN3CCN(S(=O)(=O)c4ccccc4F)CC3)cc(=O)oc2c1` gave a solubility (kinetic) of 3.4 µg/mL (≈ 7.9 µM).

For `O=C(CN1CCCCC1)NC(=O)Nc1ccccc1F`, the kinetic solubility was above 41.9 µg/mL.

Regarding `Cc1cc(C(=O)Nc2ccccc2[N+](=O)[O-])cs1`, the solubility (kinetic) came to 1.6 µg/mL (≈ 6.1 µM).

Consider `CCOC(=O)N1CCN(C(=O)c2ccc(S(=O)(=O)Nc3ccccc3)cc2)CC1`, for which the kinetic solubility is above 62.6 µg/mL.

Turning to `COc1ccc(OC)c(NC(=O)CCn2ccnc2)c1`, the kinetic solubility is 38.9 µg/mL (≈ 141 µM).

`CCC(=O)Nc1ccc(/C=C(\C(C)=O)C(=O)c2ccccc2)cc1` returned a solubility (kinetic) above 48.2 µg/mL.

Compound `Cc1ccnc(SC2CC(=O)N(c3ccc(F)cc3)C2=O)n1` (stereo not drawn) registered a kinetic solubility of 38 µg/mL (≈ 120 µM).

Turning to `Cc1ccc(/C=C/C(=O)OCC(=O)c2ccc3c(c2)NC(=O)CO3)o1`, the kinetic solubility is 17.8 µg/mL (≈ 52.2 µM).

`Cc1ccnc(NC(=O)c2ccccc2NC(=O)c2ccccc2)c1` gave a solubility (kinetic) below 0.2 µg/mL.

Turning to `COCCNc1nc(-c2cc(C)c(C)cc2C)cs1.Cl`, the kinetic solubility is 35.4 µg/mL.

For `O=C1c2ccccc2C(=O)N1OS(=O)(=O)c1ccc(F)cc1`, the solubility (kinetic) is above 48.2 µg/mL.

Turning to `O=C(Nc1ccncc1)c1c(F)c(F)c(F)c(F)c1F`, the solubility (kinetic) amounted to 41.6 µg/mL (≈ 144 µM).

In turn, `Cc1ncc([N+](=O)[O-])n1Cc1cccc(F)c1` yielded a kinetic solubility above 35.3 µg/mL.

As to `Brc1nc(-c2ccccc2)nc(-c2ccccc2)c1Br`, the kinetic solubility is below 0.4 µg/mL.

Regarding `Cc1cc(C(=O)N2CCCC(Nc3ccc(F)cc3)C2)c(C)o1` (stereo not drawn), the solubility (kinetic) is above 47.5 µg/mL.

`CCCOc1ccc(-c2nc[nH]c2[N+](=O)[O-])cc1` registered a kinetic solubility of 0.5 µg/mL (≈ 2.02 µM).

`Clc1ccc(N2CCN(Cc3ccco3)CC2)cc1` gave a kinetic solubility of 22.5 µg/mL (≈ 81.3 µM).

Compound `COc1ccc(S(=O)(=O)N2CCCCC2)cc1NC(=O)c1[nH]c(C)c(C(C)=O)c1C` yielded a kinetic solubility of 3.2 µg/mL (≈ 7.38 µM).

Consider `CCN(CC)C(=O)Oc1cc(COC)nc(-c2ccccc2)n1`, for which the kinetic solubility is 39.5 µg/mL (≈ 125 µM).

`Cl.NCCc1cnc[nH]1` returned a kinetic solubility above 27.6 µg/mL.

On to `CN(C)C(=O)c1ccc(NC(=O)c2ccccc2-c2ccccc2)cc1`, for which the kinetic solubility was above 51.7 µg/mL.

On to `CCOC(=O)CN1C(=O)c2ccccc2Sc2ncccc21`, for which the kinetic solubility is above 47.2 µg/mL.

On to `Cc1cccc(C)c1NC(=O)Cn1c(=O)c(N2CCCCC2)c(N)n(C)c1=O`, for which the solubility (kinetic) was above 57.8 µg/mL.

`Cc1ccc(NC(=O)C(=O)NCCc2c[nH]c3ccccc23)cc1C` displayed a solubility (kinetic) below 0.2 µg/mL.

`CC(C)N1CCN(Cc2ccc3nsnc3c2)CC1CCO` (stereo not drawn): the solubility (kinetic) is above 48.1 µg/mL.

`CCCN(CC(=O)Nc1ccccc1C)C(=O)c1cnc(C)cn1` displayed a kinetic solubility above 49 µg/mL.

Compound `COc1ccc(-c2cc(=O)[nH]c(N3CCN(Cc4ccccc4)CC3)n2)cc1` registered a kinetic solubility of 0.8 µg/mL (≈ 2.13 µM).

Consider `N#CC1=C(N)Oc2nc[nH]c(=O)c2C1c1cccs1` (stereo not drawn), for which the kinetic solubility is above 40.8 µg/mL.

Consider `O=C(CSc1ncn[nH]1)NCc1ccc2c(c1)OCO2`, for which the solubility (kinetic) was above 43.8 µg/mL.

As for `CCc1ccc(NC(=S)NCc2ccccc2)cc1`, the solubility (kinetic) came out at 27.4 µg/mL (≈ 101 µM).

`O=C(Nc1ccccc1Cl)OCc1cncs1` showed a solubility (kinetic) of 35.1 µg/mL (≈ 131 µM).

The compound `CNS(=O)(=O)Cc1ccc2[nH]cc(CCN(C)C)c2c1` yielded a kinetic solubility of 40.3 µg/mL (≈ 136 µM).

Take `Cc1ccc(C)c(NC(=O)CCN2C(=O)c3ccccc3C2=O)c1`: the kinetic solubility is 1.2 µg/mL (≈ 3.72 µM).

`CCN(CC)S(=O)(=O)c1ccc(/C=C/C(=O)OCC(=O)NCc2ccco2)cc1` registered a kinetic solubility of 17.3 µg/mL (≈ 41.1 µM).

`O=C(COc1ccc(/C=C\[N+](=O)[O-])cc1)N1CCOCC1` returned a solubility (kinetic) of 31.7 µg/mL (≈ 108 µM).

Compound `COC(=O)Cn1c(C)nc([N+](=O)[O-])c1Br` showed a kinetic solubility of 31.9 µg/mL (≈ 115 µM).

In turn, `Cc1cccc(NC(=O)Cn2cc(C(=O)C3CC3)c3ccccc32)c1` registered a solubility (kinetic) below 0.4 µg/mL.

The compound `CCC(C(=O)NC(CC(=O)O)c1ccc(Cl)cc1)c1ccccc1` (stereo not drawn) displayed a kinetic solubility above 51.9 µg/mL.

Compound `O=C1NC(CCc2ccccc2)C(=O)N1CCOc1ccccc1` (stereo not drawn) had a kinetic solubility of 2.5 µg/mL (≈ 7.71 µM).

Compound `CCOc1ccc2nc(S(N)(=O)=O)sc2c1` came in with a solubility (kinetic) above 38.7 µg/mL.

The compound `Cc1cc(C(=O)NCC(=O)Nc2c(C)cccc2C)c(C)o1` gave a solubility (kinetic) of 23.8 µg/mL (≈ 79.2 µM).

Compound `COc1ccc2ccccc2c1C1NC(=O)NC(C)=C1[N+](=O)[O-]` (stereo not drawn) registered a kinetic solubility of 2.1 µg/mL (≈ 6.7 µM).

In the case of `O=C(Nc1ccc(Cl)cc1Cl)C1CCCO1` (stereo not drawn), the kinetic solubility was above 39 µg/mL.

The compound `CN(c1ccc(C(=O)Nc2ccc(CC#N)cc2)cc1)S(C)(=O)=O` registered a kinetic solubility of 4.2 µg/mL (≈ 12.2 µM).

`O=C(Nc1ccc2c(c1)OCO2)c1cnccn1` gave a solubility (kinetic) of 19.5 µg/mL (≈ 80.2 µM).

Regarding `Cc1cc[n+](CCc2ccccc2)cc1C.[Br-]`, the kinetic solubility was above 43.8 µg/mL.

Turning to `CC(=O)C1C(c2ccc([N+](=O)[O-])cc2)c2c(noc2C)CC1(C)O` (stereo not drawn), the solubility (kinetic) is above 49.6 µg/mL.

Compound `COC(=O)[C@H](CC(C)C)NC(=O)N1CCCCC1` gave a solubility (kinetic) above 38.5 µg/mL.

Take `NS(=O)(=O)c1ccc(CNC(=O)c2ccc3c(c2)OCO3)cc1`: the kinetic solubility is above 50.2 µg/mL.

As to `Cc1[nH]c2ccccc2c1SCC(=O)N1CCC(C)CC1`, the kinetic solubility is above 45.4 µg/mL.

Turning to `CCC1(c2ccccc2)NC(=O)N(CC(=O)NC2CCCCCC2)C1=O` (stereo not drawn), the solubility (kinetic) is 37.8 µg/mL (≈ 106 µM).

For the compound `O=C(CN1CCCC1)Nc1ccc([N+](=O)[O-])cc1Cl`, the solubility (kinetic) was 36.2 µg/mL (≈ 128 µM).

`O=C(CCc1ccccc1)NC1CCCc2ccccc21` (stereo not drawn) registered a solubility (kinetic) of 19.2 µg/mL (≈ 68.7 µM).

`Cc1cc(C(=O)Cn2cnc3cc(F)ccc3c2=O)c(C)n1C1CC1` had a kinetic solubility of 0.9 µg/mL (≈ 2.65 µM).

On to `N#Cc1c(N2CCCC2)ccc(Br)c1Cl`, for which the solubility (kinetic) was below 0.3 µg/mL.

`CC(=O)c1csc(COc2cc(Cl)cc(Cl)c2)n1` displayed a kinetic solubility below 0.6 µg/mL.

`Cc1ccccc1OCC(O)CN(CCO)Cc1ccccc1.Cl` (stereo not drawn) registered a kinetic solubility of 40.4 µg/mL.

`COc1cccc(C(=O)NCc2ccco2)c1`: the kinetic solubility is above 34.7 µg/mL.

In the case of `CCCCn1c(=O)c(C(=O)NCc2ccco2)c(O)c2ccccc21`, the solubility (kinetic) was below 0.4 µg/mL.

For the compound `COc1ccc([N+](=O)[O-])cc1NS(=O)(=O)c1cccc(C(=O)NCCCN2CCCC2=O)c1`, the solubility (kinetic) was above 71.5 µg/mL.
